The conditions of test [1]: peptide included in vaccines IMA901 and IMA910, described in other applications by immatics; cited from earlier work.
The subject of test [2] is CD8+ T cells. Nature of the test: In vitro immunogenicity of HLA-A*0201 restricted TUMAPs (aAPC priming of CD8+ T cells, multimer staining). It is filed as cell-based, human. The settings on record: HLA-A*0201 peptides, CD8+ T cells from HLA-A*2 buffy coats of healthy donors, three stimulation cycles. From the text:
(§1) In order to perform in vitro stimulations by artificial antigen presenting cells (aAPC) loaded with peptide-MHC complex (pMHC) and anti-CD28 antibody, we first isolated CD8 T cells from fresh HLA-A*24 leukapheresis products or from HLA-A*2 buffy coats of healthy donors obtained from the Blood Bank Tuebingen.
(§2) CD8 T cells were either directly enriched or PBMCs (peripheral blood mononuclear cells) were isolated first by using standard gradient separation medium (PAA, Colbe, Germany). Isolated CD8 lymphocytes or PBMCs were incubated until use in T-cell medium (TCM) consisting of RPMI-Glutamax (Invitrogen, Karlsruhe, Germany) supplemented with 10% heat inactivated human AB serum (PAN-Biotech, Aidenbach, Germany), 100 U/ml Penicillin/100 μg/ml Streptomycin (Cambrex, Cologne, Germany), 1 mM sodium pyruvate (CC Pro, Oberdorla, Germany), 20 μg/ml Gentamycin (Cambrex). […] Isolation of CD8+ lymphocytes was performed by positive selection using CD8 MicroBeads (Miltenyi Biotec, Bergisch-Gladbach, Germany).
(§3) 800.000 beads/200 μl were coated in 96-well plates in the presence of 600 ng biotin-anti-CD28 plus 200 ng relevant biotin-pMHC (high density beads). […] Half of the medium was then exchanged by fresh TCM supplemented with 80 U/ml IL-2 and incubation was continued for 3-4 days at 37° C. This stimulation cycle was performed for a total of three times.
(§4) In vitro priming of specific multimer+CD8+ lymphocytes was detected by appropriate gating and by comparing to negative control stimulations.

Test [3] deals with CD8+ T cells. Nature of the test: In vitro immunogenicity of HLA-A*2402 restricted TUMAPs (aAPC priming of CD8+ T cells, multimer staining). It is filed as cell-based, human. The conditions noted are these: HLA-A*2402 peptides, CD8+ T cells of healthy HLA-A*24 donors, three stimulation cycles with pMHC/anti-CD28 beads; for Wells positive/evaluable [%]: at least 48 wells evaluable; for Donors positive/evaluable [%]: at least four donors evaluable.
Text: as §1, §2, §3, §4

Consider “YVDPVITSI (listed as Homo sapiens) [MET-001]”, for which, in test [1], the in vivo reactions result is listed as “extremely good in vivo reactions”. Also, in the test on CD8+ T cells [2], the “Donors positive/evaluable [%]” value was found to be 67% and the “Wells positive/evaluable [%]” value came to 42%.
On to “KIFDEILVNA (listed as Homo sapiens) [TOP-001]”, for which, in the test on CD8+ T cells [2], the “Donors positive/evaluable [%]” value came to 40% and the “Wells positive/evaluable [%]” value was found to be 10%.
“KIQEILTQV (listed as Homo sapiens) [IGF2BP3-001]”: in the test on CD8+ T cells [2], the “Donors positive/evaluable [%]” value worked out at 50% and the “Wells positive/evaluable [%]” value was 21%.
On to “HYKPTPLYF (listed as Homo sapiens) [SMC4-001]”, for which, in the test with CD8+ T cells [3], the “Wells positive/evaluable [%]” value is 10% and the “Donors positive/evaluable [%]” value was 73%.
The like results for “IYNGKLFDLL (listed as Homo sapiens) [KIF2C-001]” were, in that order, 2% and 17%.
As for “NYLPFIMEL (listed as Homo sapiens) [UCHL5-001]”, in the test on CD8+ T cells [3], the “Wells positive/evaluable [%]” value is listed as 12% and the “Donors positive/evaluable [%]” value is 75%.
For “TYGNLLDYL (listed as Homo sapiens) [ABL1-001]” the same measures were 18% and 83%.
For “IFSKIVSLF (listed as Homo sapiens) [EIF2S3-001]” the same measures were 1% and 17%.
Consider “VYLLNSTTL (listed as Homo sapiens) [CLCN3-001]”, for which, in the test on CD8+ T cells [3], the “Wells positive/evaluable [%]” value came to 6% and the “Donors positive/evaluable [%]” value amounted to 33%.
The like results for “LYQILQGIVF (listed as Homo sapiens) [CDC2-001]” were, in that order, 28% and 83%.
The like results for “RYLEGTSCI (listed as Homo sapiens) [EPPK1-001]” were, in that order, 1% and 17%.
In the case of “KYNDTFWKEF (listed as Homo sapiens) [HSP90B1-001]”, in the test with CD8+ T cells [3], the “Wells positive/evaluable [%]” value is 7% and the “Donors positive/evaluable [%]” value is listed as 50%.
On to “LYPEVFEKF (listed as Homo sapiens) [ATAD2-003]”, for which, in the test with CD8+ T cells [3], the “Wells positive/evaluable [%]” value was 0% and the “Donors positive/evaluable [%]” value amounted to 0%.
